# Patent publication US8173693B2, “Benzenesulfonamide derivatives and pharmaceutical composition thereof” (Purzer Pharmaceutical Co., Ltd., priority 2010, dated 2012)
# How the values were obtained:
# [1] = test system: human nasopharyngeal carcinoma KB cells; test: MTT assay; format: cell-based; conditions: Homo sapiens, MTT assay; for IC50: KB, 72 hr; for inhibition at 20 µM: KB cells, read-out: Percentage of tumor cells inhibited by 20 μM
# Experimental: (§1) Human Bladder Cancer TSGH cells, Human hepatoblastoma HepG2 cells, Human colorectal adenocarcinoma HT-29 cells, human nasopharyngeal carcinoma KB cells, Human gastric adenocarcinoma AGS cells, Human breast carcinoma MCF-7 cells, lung carcinoma A549 cells, and Human prostate carcinoma PC-3 cells were used in the preliminary cytotoxicity assays of the benzenesulfonamide derivatives of the present invention, and the inhibition activity against the tumor cells was evaluated.
# (§2) All cell lines were maintained in RPMI 1640 supplied with 10% fetal bovine serum and maintained in a humidified chamber at 37° C. containing 5% CO2. Then, all cell lines were treated with compounds for 72 hr and subsequently incubated with 0.4 mg/mL of MTT at 37° C. for 2 hr. The medium was removed, and DMSO was added to dissolve MTT precipitate. Cell proliferation was determined by measuring the optical density at 540 nm using a Thermomax microplate reader (Molecular Devices, Sunnyvale, Calif.), and the IC50 values of the benzenesulfonamide derivatives of the present invention were calculated.
# [2] = test system: Human colorectal adenocarcinoma HT-29 cells; test: MTT assay; format: cell-based; conditions: 72 hr
# Experimental: as §1, §2
# [3] = test system: Human hepatoblastoma HepG2 cells; test: MTT assay; format: cell-based; conditions: 72 hr, read-out: IC50 HepaG2
# Experimental: as §1, §2
# [4] = test system: Human Bladder Cancer TSGH cells; test: MTT assay; format: cell-based; conditions: 72 hr
# Experimental: as §1, §2
# [5] = test system: Human colorectal adenocarcinoma HT-29 cells; test: SRB assay; format: cell-based; conditions: 48 hr
# [6] = test system: Human hepatoblastoma HepG2 cells; test: SRB assay; format: cell-based; conditions: 48 hr
# [7] = test system: lung carcinoma A549 cells; test: SRB assay; format: cell-based; conditions: Homo sapiens, 48 hr
# [8] = test system: Human gastric adenocarcinoma AGS cells; test: SRB assay; format: cell-based; conditions: 48 hr
# [9] = test system: lung carcinoma A549 cells; test: SRB assay; format: cell-based; conditions: Homo sapiens, 48 hr; remark: listed apart in the source
# Experimental: as §1
# (§3) All cell lines were maintained in RPMI 1640 supplied with 10% fetal bovine serum into 96-well microtiter plates and maintained in a humidified chamber at 37° C. containing 5% CO2. After 24 hr, cell lines in partial wells were fixed in situ with 10% trichloroacetic acid (TCA) to represent a measurement at the time of drug addition (T0). Then, cell lines in other wells were incubated with the benzenesulfonamide derivatives of the present invention for an additional 48 hr, and fixed in situ with 10% TCA to represent a measurement at the time of stopping reaction (Tx). After rinsing the plates with PBS and air-drying, 0.4% sulforhodamine B solution (weight per volume in 1% acetic acid) was added to each well and the plates were incubated for 10 min at room temperature. Unbound sulforhodamine B was removed with 1% acetic acid and the plates were air-dried. Cells bound with sulforhodamine B was subsequently solubilized with 10 mM Tris base (Trizma; Sigma). Cell proliferation was determined by measuring the optical density at 515 nm using a Thermomax microplate reader (Molecular Devices, Sunnyvale, Calif.). The half-inhibition concention (GI50) of the benzenesulfonamide derivatives of the present invention was obtained from the detected optical density.
# [10] = test system: Human gastric adenocarcinoma AGS cells; test: SRB assay; format: cell-based; conditions: 48 hr; remark: listed apart in the source
# Experimental: as §1, §3
# [11] = test system: Human colorectal adenocarcinoma HT-29 cells; test: SRB assay; format: cell-based; conditions: 48 hr; remark: listed apart in the source
# Experimental: as §1, §3
# [12] = test system: Human prostate carcinoma PC-3 cells; test: SRB assay; format: cell-based; conditions: Homo sapiens; for GI50: PC-3, 48 h; for IC50: PC-3, 48 hr
# Experimental: as §1, §3
# [13] = test system: Human breast carcinoma MCF-7 cells; test: SRB assay; format: cell-based; conditions: MCF7, 48 hr
# Experimental: as §1, §3
# [14] = test system: Human hepatoblastoma HepG2 cells; test: SRB assay; format: cell-based; conditions: 48 hr; remark: listed apart in the source
# Experimental: as §1, §3
# [15] = test system: Human breast carcinoma MCF-7 cells; test: SRB assay; format: cell-based; conditions: MCF7, 48 hr; remark: listed apart in the source
IC50 [1] [µM],IC50 [2] [µM],IC50 [3] [µM],IC50 [4] [µM],melting point [°C],SMILES,inhibition at 20 µM [1] [%],also measured
,,,,179 to 181,"Cc1ccc(C)c2c1[nH]c1c(N(C)S(=O)(=O)c3ccc(Cl)s3)cccc12 [Compound 15k, 5-Chloro-thiophene-2-sulfonic acid (5,8-dimethyl-9H-carbazol-1-yl)-methyl-amide]",,IC50 [5]: 3.9 µM; IC50 [6]: 1.6 µM; IC50 [7]: > 10 µM; IC50 [8]: > 10 µM; GI50 [9]: 8.1 µM; GI50 [10]: 7.5 µM; GI50 [11]: 0.3 µM; GI50 [12]: 7 µM; IC50 [12]: > 10 µM; GI50 [13]: > 10 µM; GI50 [14]: 0.7 µM; IC50 [15]: > 10 µM
,,,,222 to 224,"COc1ccc(S(=O)(=O)N(c2cccc3c2[nH]c2c(C)ccc(C)c23)C(C)C)cc1 [Compound 18c, N-(5,8-Dimethyl-9H-carbazol-1-yl)-N-isopropyl-4-methoxybenzenesulfonamide]",,IC50 [5]: 0.7 µM; IC50 [6]: 1.6 µM; IC50 [7]: > 10 µM; IC50 [8]: > 10 µM; GI50 [9]: 7.8 µM; GI50 [10]: 0.5 µM; GI50 [11]: 0.2 µM; GI50 [12]: 4 µM; IC50 [12]: 9.4 µM; GI50 [13]: 9.5 µM; GI50 [14]: 0.5 µM; IC50 [15]: > 10 µM
,,,,192 to 194,"Cc1ccc(C)c2c1[nH]c1c(N(C)S(=O)(=O)c3cccc(C(F)(F)F)c3)cccc12 [Compound 15j, N-(5,8-Dimethyl-9H-carbazol-1-yl)-N-methyl-3-trifluoromethylbenzenesulfonamide]",,IC50 [5]: 10 µM; IC50 [6]: > 10 µM; IC50 [7]: > 10 µM; IC50 [8]: > 10 µM; GI50 [9]: > 10 µM; GI50 [10]: 7.8 µM; GI50 [11]: 5.6 µM; GI50 [12]: > 10 µM; IC50 [12]: > 10 µM; GI50 [13]: 7.8 µM; GI50 [14]: > 10 µM; IC50 [15]: > 10 µM
,,,,300 to 301,"Cc1ccc(C)c2c1[nH]c1c(NC(=O)Nc3ccccc3)cccc12 [Compound 14a, 1-(5,8-Dimethyl-9H-carbazol-1-yl)-3-phenylurea]",,
,,,,262 to 263,"COc1ccc(NC(=O)Nc2cccc3c2[nH]c2c(C)ccc(C)c23)cc1 [Compound 14b, 1-(5,8-Dimethyl-9H-carbazol-1-yl)-3-(4-methoxyphenyl)urea]",,

# The remaining lines, values behind:
SMILES,IC50 [1] [µM],IC50 [2] [µM],IC50 [3] [µM],IC50 [4] [µM],melting point [°C],inhibition at 20 µM [1] [%],also measured
"COc1ccc(S(=O)(=O)Nc2cccc3cc[nH]c23)cc1 [Compound 5c, N-(1H-Indol-7-yl)-4-methoxybenzenesulfonamide]",3.4,1.7,1.9,2.4,161 to 162,,
"O=[N+]([O-])c1ccccc1S(=O)(=O)Nc1cccc2cc[nH]c12 [Compound 5h, N-(1H-Indol-7-yl)-2-nitrobenzenesulfonamide]",> 20,126,87.8,125,187 to 188,13,
"Cc1ccc(C)c2c1[nH]c1c(NS(=O)(=O)c3ccccc3)cccc12 [Compound 6a, N-(5,8-Dimethyl-9H-carbazol-1-yl)benzenesulfonamide]",> 20,141,66.7,160,237 to 238,32,
"Cc1ccc(S(=O)(=O)Nc2cccc3cc[nH]c23)cc1 [Compound 5b, N-(1H-Indol-7-yl)-4-methylbenzenesulfonamide]",> 20,7.9,7.9,9.4,159 to 160,39,
"Cc1ccc(C)c2c1[nH]c1c(NS(=O)(=O)c3ccc(S(N)(=O)=O)cc3)cccc12 [Compound 6g, N-(5,8-Dimethyl-9H-carbazol-1-yl)-4-sulfamoylbenzenesulfonamide]",19.1,124,139,80.7,290 to 291,,
"Cc1ccc(C)c2c1[nH]c1c(NS(=O)(=O)c3ccccc3[N+](=O)[O-])cccc12 [Compound 6h, N-(5,8-Dimethyl-9H-carbazol-1-yl)-2-nitrobenzenesulfonamide]",> 20,17,21,37.2,202 to 203,24,
"O=S(=O)(Nc1cccc2cc[nH]c12)c1ccccc1 [Compound 5a, N-(1H-Indol-7-yl)benzenesulfonamide]",> 20,51.9,44.7,7.5,178 to 179,30,
"Cc1ccc(C)c2c1[nH]c1c(NS(=O)(=O)c3ccc(Cl)cc3)cccc12 [Compound 6d, 4-Chloro-N-(5,8-dimethyl-9H-carbazol-1-yl)benzenesulfonamide]",> 20,81.6,34.4,90,217 to 218,46,
"NS(=O)(=O)c1ccc(S(=O)(=O)Nc2cccc3cc[nH]c23)cc1 [Compound 5g, N-(1H-Indol-7-yl)-4-sulfamoylbenzenesulfonamide]",> 20,65.9,39.2,37.5,215 to 216,12,
"COc1cc(S(=O)(=O)Nc2cccc3c2[nH]c2c(C)ccc(C)c23)cc(OC)c1OC [Compound 6i, N-(5,8-Dimethyl-9H-carbazol-1-yl)-3,4,5-trimethoxybenzenesulfonamide]",,,,,205 to 207,,
"Cc1ccc(S(=O)(=O)Nc2cccc3c(/N=N/c4ccccc4)c[nH]c23)cc1 [Compound 7b, 4-Methyl-N-(3-phenylazo-1H-indol-7-yl)benzenesulfonamide]",> 20,17.9,30.8,16,212 to 213,35,
"Cc1ccc(C)c2c1[nH]c1c(NS(=O)(=O)c3cc(Cl)c(Oc4ccc([N+](=O)[O-])cc4Cl)c(Cl)c3)cccc12 [Compound 61, 3,5-Dichloro-4-(2-chloro-4-nitrophenoxy)-N-(5,8-dimethyl-9H-carbazol-1-yl)benzenesulfonamide]",,,,,249,,
"Cc1ccc(C)c2c1[nH]c1c(NS(=O)(=O)c3ccc(N)cc3)cccc12 [Compound 6f, 4-Amino-N-(5,8-dimethyl-9H-carbazol-1-yl)benzenesulfonamide]",> 20,18.7,16.6,39,254 to 255,34,
"O=[N+]([O-])c1ccc(S(=O)(=O)Nc2cccc3cc[nH]c23)cc1 [Compound 5e, N-(1H-Indol-7-yl)-4-nitrobenzenesulfonamide]",> 20,113,46.9,95.6,185 to 186,14,
"Cc1ccc(C)c2c1[nH]c1c(NS(=O)(=O)c3ccc([N+](=O)[O-])cc3)cccc12 [Compound 6e, N-(5,8-Dimethyl-9H-carbazol-1-yl)-4-nitrobenzenesulfonamide]",> 20,17.6,19.8,40.6,202 to 203,9,
"O=S(=O)(Nc1cccc2cc[nH]c12)c1ccc(Cl)cc1 [Compound 5d, 4-Chloro-N-(1H-indol-7-yl)benzenesulfonamide]",20,19.8,14,35.6,163 to 164,,
"Cc1ccc(S(=O)(=O)Nc2cccc3c2[nH]c2c(C)ccc(C)c23)cc1 [Compound 6b, N-(5,8-Dimethyl-9H-carbazol-1-yl)-4-methylbenzenesulfonamide]",2.5,1.1,1.7,2.1,185 to 186,,
